# Reference: US6403807B1, “Bridged fluorescent dyes, their preparation and their use in assays” (SurroMed, Inc., priority 1999, dated 2002)
# Tests used:
# [1] = UV-Visible absorption spectra of the dyes; format: physicochemical
# Description: (§1) UV-Visible absorption spectra were recorded on Shimadzu UV-2401PC Spectrophotometer, while fluorescence measurements were performed Spex-Fluorlog2 Fluorometer (Instrument S.A. Inc.).
# (§2) The spectral properties of the dyes of the previous Examples were measured. […] Other materials absorbed at the […] krypton laser wavelength.
# [2] = Fluorescence measurements (excitation/emission) of the dyes; format: physicochemical
# Description: as §1, §2
SMILES,δmax (absorption maximum) ([1]; CH2Cl2),δem (emission wavelength) ([2]; CH2Cl2),further results
"CC1(C)C2=[N+](CCCCCC(=O)Nc3cc(cc(C(=O)O)c3)NC(=O)CCCCCN3/C(=C/C=C/C=C/2)C(C)(C)c2cc(S(=O)(=O)O)ccc23)c2ccc(S(=O)(=O)[O-])cc21 [Dye 16, Bridged Pentamethine Indoleninium Cyanine Dye]",,,"e (extinction coefficient at δmax) ([1]; PBS buffer): 250,000; δmax (absorption maximum) ([1]; PBS buffer): 648 nm; δem (emission wavelength) ([2]; PBS): 674 nm; δex (excitation wavelength) ([2]; PBS): 648 nm"
"CC1(C)C2=[N+](CCCCCC(=O)Nc3cc(cc(C(=O)O)c3)NC(=O)CCCCCN3/C(=C/C=C/C=C/C=C/2)C(C)(C)c2cc(S(=O)(=O)O)ccc23)c2ccc(S(=O)(=O)[O-])cc21 [Dye 17, Bridged Heptamethine Indoleninium Cyanine Dye]",,,δmax (absorption maximum) ([1]; PBS buffer): 748 nm; δem (emission wavelength) ([2]; PBS): 780 nm; δex (excitation wavelength) ([2]; PBS): 748 nm
CC1(C)C2=[N+](CCCCCCCCCCCCN3/C(=C/C=C/C=C/2)C(C)(C)c2ccccc23)c2ccccc21.[Br-] [Dye 19],656 nm,674 nm,
"CC1(C)C2=[N+](CCCCCCCCCCCCN3/C(=C/C4=C([O-])C(=C/2)/C4=O)C(C)(C)c2ccccc23)c2ccccc21 [Dye 20, Dodecanyl Bridged Indoleninium Squaraine Dye]",648 nm,,
"CC1(C)C2=[N+](CCCCCCCCCCCCN3/C(=C/C=C/C=C/C=C/2)C(C)(C)c2ccccc23)c2ccccc21.[Br-] [Dye 21, Dodecanyl Bridged Indoleninium Heptamethine Cyanine Dye]",760 nm,790 nm,
"CC1(C)C2=[N+](CCCCCCCCCCCCN3/C(=C/C=C/C=C/2)C(C)(C)c2c3ccc3ccccc23)c2ccc3ccccc3c21.[Br-] [Dye 23, Dodecanyl Bridged Benzindoleninium Pentamethine Cyanine dye]",696 nm,716 nm,
"CC1(C)C2=[N+](CCCCCCCCCCCCN3/C(=C/C4=C([O-])C(=C/2)/C4=O)C(C)(C)c2c3ccc3ccccc23)c2ccc3ccccc3c21 [Dye 24, Dodecanyl Bridged Benzindoleninium Squaraine Dye]",671 nm,681 nm,
"CC1(C)C2=[N+](CCCCCCCCCCCCN3/C(=C/C=C/C=C/C=C/2)C(C)(C)c2c3ccc3ccccc23)c2ccc3ccccc3c21 [Dye 25, Dodecanyl Bridged Benzindoleninium Heptamethine Dye]",800 nm,820 nm,
"CC1(C)C2=[N+](CCCCCC(=O)Nc3cc(cc(C(=O)O)c3)NC(=O)CCCCCN3/C(=C/C=C/2)C(C)(C)c2cc(S(=O)(=O)[O-])ccc23)c2ccc(S(=O)(=O)O)cc21 [Dye 27, Bridged Trimethine Indolenium Cyanine Dye]",,,δmax (absorption maximum) ([1]; solvent not stated): 563 nm
"CC1(C)C2=CC3=C(S)/C(=C\C4=[N+](CCCCCC(=O)Nc5cc(cc(C(=O)O)c5)NC(=O)CCCCCN2c2ccc(S(=O)(=O)O)cc21)c1ccc(S(=O)(=O)[O-])cc1C4(C)C)C3=S [Dye 28, Bridged Thiosquarylium Dye]",,,δmax (absorption maximum) ([1]; solvent not stated): 649 nm
